{"source": "paper PMC9035150", "about": "“Effects of ALT-801, a GLP-1 and glucagon receptor dual agonist, in a translational mouse model of non-alcoholic steatohepatitis” (Scientific Reports, 2022)", "system": "DIO-NASH mouse model", "assay": "Biopsy-confirmed DIO-NASH (AMLN diet) mouse model, 12 weeks of daily treatment", "assay_type": "in vivo", "procedure": "ALT-801 was evaluated for its metabolic and anti-fibrotic effects during 12 weeks of treatment in the well-documented Amylin Liver NASH (AMLN) DIO-NASH mouse model[22],[44] at Gubra ApS. Mice had ad libitum access to tap water and a diet high in fat (40%, containing 18% trans-fat; 40% carbohydrates, 20% fructose) and 2% cholesterol (AMLN diet; D09100301, Research Diets, New Brunswick, NJ). Semaglutide (GLP-1R agonist) and elafibranor (peroxisome proliferator-activated receptor [PPAR]-α/δ agonist) were included as comparators to assess the effects of added GCGR agonism, and a previously observed modest antifibrotic effect in this assay, respectively. […]\nAfter 29 weeks of diet induction (week-3 relative to start of treatment) a pre-treatment liver biopsy was performed as described in detail previously[44] to select animals for stratification and randomization based on histological assessment. Liver histology was scored using the NAS and fibrosis stage criteria defined by the NASH Clinical Research Network Pathology Committee[47] and only those animals with confirmed steatosis (score ≥ 2) and fibrosis (stage ≥ 1) were selected for stratification and randomization. A stratified randomization into treatment groups was performed for the biopsy-proven DIO-NASH mice according to liver collagen type 1 alpha 1 (Col1A1) quantification at week-3. […]"}
{"smiles": "CSc1ccc(C(=O)/C=C/c2cc(C)c(OC(C)(C)C(=O)O)c(C)c2)cc1", "note": "[elafibranor]", "values": [{"measurement": "Animals with reduction in fibrosis stage of 1 or greater compared to the start of treatment", "setting": "12 weeks", "result": 75, "unit": "%"}, {"measurement": "Body weight vs. vehicle", "setting": "daily for 12 weeks, ALT-801 5 and 10 nmol/kg s.c., semaglutide 10 nmol/kg s.c., elafibranor 78 μmol/kg oral, stabilized after 2–3 weeks, n = 11–12", "result": "significant (p < 0.001) body weight decreases"}]}
